The source of these data is patent publication US9937163B2, “Remedy for psychoneurotic diseases” (National University Corporation Chiba University, priority 2004, dated 2018).

Structures are written as SMILES. Marks after values point to notes of the source that are not given here.

The assay deals with P50 auditory evoked potential in schizophrenic patients. The assay can be described thus: P50 auditory evoked potential in schizophrenic patients before and 1 h after administration of tropisetron. In kind it is in vivo, human. On the procedure:
Twenty-two patients with schizophrenia (14 males and 8 females, average age: 39.8 years old (standard deviation 14.0), age range: 18-60 years old) were selected as subjects. The subjects were diagnosed by psychiatrists on the basis of DSM-IV criteria. Psychiatric symptoms and cognitive functions of the subjects were evaluated using Brief Psychiatric Rating Scale (BPRS), Global Assessment of Functioning (GAF), Mini-Mental State Examination (MMSE) and Wechsler Adult Intelligence Scale-Revised (WAIS-R).
First, a baseline P50 auditory evoked potential of a subject was measured (conditioning P50), then the P50 was measured 1 h after administration of 10 mg of tropisetron (test P50). P50 is a positive brain wave which appears approximately 50 m seconds after an auditory stimulus. Consecutive click sounds with an interval of 500 m seconds (conditioning stimulus and test stimulus) at 70 dB were presented every 10 seconds for 120 times, and the brain wave measured at the parietal region was summed to identify P50. The resistance of an electrode was set at 10 kW or less, and the brain wave exceeding ±70 mV was omitted as artifact. The largest positive wave between 40 ms and 90 ms after the conditioning stimulus was designated to be the conditioning P50, and the positive wave after the test stimulus whose latency is the closest to that of the conditioning P50 was designated to be the test P50. The amplitude of P50 was defined as the difference between the positive peak and the preceding negative trough. The P50 ratio was defined as the amplitude of the test P50 divided by the amplitude of the conditioning P50.
Data were expressed as average±standard deviation. The statistical analysis between two groups was performed using Student's t-test. The relationship between variables was confirmed by Pearson's product-moment correlation coefficient. p Values of 0.05 or less were designated to be statistically significant.

[1] abbreviates: 1 h after administration of 10 mg tropisetron, 19 subjects with baseline P50 ratio larger than 0.5.

Take `CN1[C@@H]2CC[C@H]1C[C@@H](OC(=O)c1c[nH]c3ccccc13)C2` [tropisetron, (1R,3r,5S)-8-methyl-8-azabicyclo[3.2.1]oct-3-yl 1H-indole-3-carboxylate]: the “Change in amplitude of conditioning P50 between before and after administration” value (10 mg tropisetron, 1 h, 19 subjects, t=0.79, df=18, p=0.44) is “no significant differences”. Further, where the note is “10 mg tropisetron, 1 h, 19 subjects, t=1.05, df=18, p=0.31”, the “Change in latency of conditioning P50 between before and after administration” value is recorded as “no significant differences”. For the same molecule, where the note is “10 mg tropisetron, 1 h, 19 subjects, t=2.32, df=18, p=0.033”, the “Change in P50 ratio between before and after administration” value is “significant decrease”. For the same molecule, under setting [1], the “Latency, conditioning P50, After, Mean” value worked out at 59.79 ms and the “Latency, test P50, After, Mean” value worked out at 59.16 ms. For the setting “1 h after administration of 10 mg tropisetron, 19 subjects with baseline P50 ratio larger than 0.5, amplitude of test P50 divided by amplitude of conditioning P50”, the “P50(T/C)ratio, After, Mean” value is listed as 0.61*. The “Effect on cognitive dysfunction in schizophrenia” value (conclusion drawn from the decrease in P50 ratios in patients with schizophrenia) is recorded as “improves cognitive dysfunction in schizophrenia”. The “Number of subjects in whom the P50 ratio improved to 0.5 or less” value (of 19 subjects with baseline P50 ratio larger than 0.5, after 10 mg tropisetron) is listed as “four”.
